Experimental findings from patent EP4678629A1, “IONIZABLE LIPID MOLECULE, PREPARATION METHOD THEREFOR AND USE THEREOF” (Maxirna (Shanghai) Pharmaceutical Co., Ltd., priority 2023, dated 2024) are described below.

Data set [1] in a line: In vitro transfection of cells with eGFP-mRNA lipid nanoparticle (LNP preparation), fluorescence imaging and flow cytometry. Type of data set: cell-based, mouse. Conditions: mouse, dc2.4 cells, 200 ng of mRNA per well, after 24 hours; read-out: Cell viability, %. The essentials: (§1)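 Mouse bone marrow-derived DC2.4 dendritic cells seeded at 2 × 10^5 cells/well in DMEM with 10% FBS, transfected with eGFP-mRNA LNPs the next day at 37 °C, 5% CO2. After 24 hours, viability, eGFP-positive rate and mean fluorescence intensity read by fluorescence imaging and flow cytometry.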
Background: A flow cytometer gives signals particle by particle.

In a further data set the test system is DC2.4 cells. The data set is described as above. Conditions: eGFP positivity rate, DC2.4 cells, 200 ng of mRNA per well, after 24 hours. Type of data set: cell-based, mouse. The essentials: as §1
Data set [2] is described as follows: Size and polydispersity index (PDI) of the lipid nanoparticle by dynamic light scattering. The class given is physicochemical. To be noted: LNP encapsulating eGFP mRNA, ionizable lipid/DOPE/cholesterol/DMG-PEG2000 50/10/48.25/1.25 mol%, N/P 12; for Particle size: in nm (unit assumed). The essentials:
(§2)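 LNPs were made by microfluidic mixing of ionizable lipid/DOPE/cholesterol/DMG-PEG2000 (50/10/48.25/1.25 mol%) in ethanol with eGFP mRNA in 20 mM citrate pH 6.1, N/P 12, then ultrafiltered into DPBS and 0.2 µm filtered. Size and PDI by DLS at 173° backscatter; encapsulation by Ribogreen.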

Data set [3] in a line: Encapsulation efficiency of the lipid nanoparticle (eGFP mRNA) by Ribogreen method. Type of data set: physicochemical. Conditions: LNP encapsulating eGFP mRNA, ionizable lipid/DOPE/cholesterol/DMG-PEG2000 50/10/48.25/1.25 mol%, N/P 12. The essentials: as §2

As usually defined, the viability is the share of living cells, or the viability signal relative to a control. Take `CC(C)=CCC/C(C)=C/COC(=O)CCCCCCCN(CCO)CCCN(CCCCCCCC(=O)OC/C=C(\C)CCC=C(C)C)CCCCCCCC(=O)OC/C=C(\C)CCC=C(C)C` [Example 3, Di((E)-3,7-dimethyloctan-2,6-dien-1-yl)8,8'-((3-((8-(((E)-3,7-dimethyloctan-2,6-dien-1-yl)oxo)-8-oxooctyl)(2-hydroxyethyl)amino)propyl)azanediyl)dioctanoate]: in data set [1], the viability at 24 h came out at 68.6%. The “Positive rate, %” value in the data set on DC2.4 cells came to 93.43%. Also, in data set [2], the PDI amounted to 0.12 and the Particle size turned out to be 92.13. Further, the “Encapsulation rate, %” value in data set [3] came out at 95.96%.
For the compound `CCCCC/C=C\C/C=C\CCCCCCCCOC(=O)CCCCCCCN(CCO)CCCN(CCCCCCCC(=O)OCCCCCCCC/C=C\C/C=C\CCCCC)CCCCCCCC(=O)OCCCCCCCC/C=C\C/C=C\CCCCC` [Example 24, Di((9Z,12Z)-octadeca-9,12-dien-1-yl)8,8'-((3-((2-hydroxyethyl)(8-(((9Z,12Z)-octadeca-9,12-dien-1-yl)oxo)-8-oxooctyl)amino)propyl)azanediyl)dioctanoate], the viability at 24 h in data set [1] turned out to be 76%. Besides, the “Positive rate, %” value with DC2.4 cells was 92.27%. In data set [2], this compound registered a PDI of 0.15. In data set [3], the “Encapsulation rate, %” value came out at 97.73%.
As for `CCCCCCCCCCCOC(=O)CCCCN(CCCO)CCCN(CCCCC(=O)OCCCCCCCCCCC)CCCCC(=O)OCCCCCCCCCCC` [Example 42, Diundecyl 5,5'-((3-((3-hydroxypropyl)(5-oxo-5-(undecyloxy)pentyl)amino)propyl)azadiyl)dipentanoate], the viability at 24 h in data set [1] is 94.1%. The “Positive rate, %” value in the data set with DC2.4 cells is 96.69%. Also, in data set [2], the PDI stood at 0.11 and the Particle size was 98.73. In data set [3], the “Encapsulation rate, %” value stood at 98.13%.
In the case of `CCCCCCCCCCCCCOC(=O)CCCN(CCCO)CCCCCN(CCCC(=O)OCCCCCCCCCCCCC)CCCC(=O)OCCCCCCCCCCCCC` [Example 100, 4,4'-ditridecyl((5-((3-hydroxypropyl)(4-oxo-4-(tridecyloxy)butyl)amino)pentyl)azetidinyl)dibutanoate], the viability at 24 h in data set [1] stood at 99%. For the same compound, the “Positive rate, %” value in the data set on DC2.4 cells came out at 93.24%. The compound further had a PDI in data set [2] of 0.16. In data set [3], the “Encapsulation rate, %” value was 92.32%.
The like results for `CCCCCCCCCCCOC(=O)CCCCN(CCO)CCCN(CCCCC(=O)OCCCCCCCCCCC)CCCCC(=O)OCCCCCCCCCCC` [Example 107] were, in that order, 92.9%, 92.10%, 0.13 and 95.47%.
`CCCCCCCCCCCCCCOC(=O)CCCCCN(CCO)CCCN(CCCCCC(=O)OCCCCCCCCCCCCCC)CCCCCC(=O)OCCCCCCCCCCCCCC` [Example 53, Ditetradecyl 6,6'-((3-((2-hydroxyethyl)(6-oxo-6-(tetradecyloxy)hexyl)amino)propyl)azanediyl)dihexanoate]: in data set [1], the viability at 24 h was 68.6%. For the same compound, in the data set on DC2.4 cells, the “Positive rate, %” value was 86.07%. Besides, in data set [2], the PDI is given as 0.09 and the Particle size was 91.34. Further, the “Encapsulation rate, %” value in data set [3] came to 97.67%.
Regarding `CCCCCCCCCCCOC(=O)CCCCCN(CCCCO)CCCN(CCCCCC(=O)OCCCCCCCCCCC)CCCCCC(=O)OCCCCCCCCCCC` [Example 28, Diundecyl 6,6'-((3-((4-hydroxybutyl)(6-oxo-6-(undecyloxy)hexyl)amino)propyl)azanediyl)dihexanoate], the viability at 24 h in data set [1] was 92.9%. Also, in the data set with DC2.4 cells, the “Positive rate, %” value was found to be 97.51%. In data set [2], this compound came in with a PDI of 0.17. The “Encapsulation rate, %” value in data set [3] is on record as 99.47%.
Consider `CCCCCCCCCCCCOC(=O)CCCN(CCCO)CCCCN(CCCC(=O)OCCCCCCCCCCCC)CCCC(=O)OCCCCCCCCCCCC` [Example 103], for which the viability at 24 h in data set [1] was 95.3%. For the same compound, the “Positive rate, %” value with DC2.4 cells amounted to 93.80%. In data set [2], this compound returned a PDI of 0.14 and a Particle size of 94.10. Also, the “Encapsulation rate, %” value in data set [3] was found to be 94.31%.
As for `CCCCCOC(=O)CCCCCCCN(CCO)CCCN(CCCCCCCC(=O)OCCCCC)CCCCCCCC(=O)OCCCCC` [Example 5, Dipentyl 8,8'-((3-((2-hydroxyethyl)(8-oxo-8-(pentyloxy)octyl)amino)propyl)azanediyl)dioctanoate], the viability at 24 h in data set [1] was found to be 86.6%. Further, in the data set on DC2.4 cells, the “Positive rate, %” value is 83.41%. Besides, the PDI in data set [2] worked out at 0.16. In addition, the “Encapsulation rate, %” value in data set [3] came to 94.14%.
As for `CCCCCCCCCCCCCOC(=O)CCCCN(CCCO)CCCN(CCCCC(=O)OCCCCCCCCCCCCC)CCCCC(=O)OCCCCCCCCCCCCC` [Example 40], the viability at 24 h in data set [1] was determined as 97.7%. The “Positive rate, %” value with DC2.4 cells was determined as 99.14%. In data set [2], this compound yielded a PDI of 0.14 and a Particle size of 63.23. For the same compound, in data set [3], the “Encapsulation rate, %” value was found to be 99.29%.
For `CCCCCCCCCCCCCCOC(=O)CCCCCCN(CCCCO)CCCN(CCCCCCC(=O)OCCCCCCCCCCCCCC)CCCCCCC(=O)OCCCCCCCCCCCCCC` [Example 58, Ditetradecyl 7,7'-((3-((4-hydroxybutyl)(7-oxo-7-(tetradecyloxy)heptyl)amino)propyl)azanediyl)diheptanoate], in that order: 63.2%, 87.44%, 0.16, 79.13 and 99.17%.
The like results for `CCCCCCCCCCCOC(=O)CCCCCCCN(CCCCO)CCCN(CCCCCCCC(=O)OCCCCCCCCCCC)CCCCCCCC(=O)OCCCCCCCCCCC` [Example 20, Diundecyl 8,8'-((3-((4-hydroxybutyl)(8-oxo-8-(undecyloxy)octyl)amino)propyl)azanediyl)dioctanoate] were, in that order, 83.8%, 93.27%, 0.18, 89.98 and 79.02%.
For `CCCCC/C=C\C/C=C\CCCCCCCCOC(=O)CCCCCCN(CCCO)CCCN(CCCCCCC(=O)OCCCCCCCC/C=C\C/C=C\CCCCC)CCCCCCC(=O)OCCCCCCCC/C=C\C/C=C\CCCCC` [Example 114], in that order: 93.4%, 91.74%, 0.16, 89.25 and 92.78%.
As to `CCCCCCCCCCCCCOC(=O)CCCN(CCCO)CCCCN(CCCC(=O)OCCCCCCCCCCCCC)CCCC(=O)OCCCCCCCCCCCCC` [Example 101, 4,4'-ditridecyl((4-((3-hydroxypropyl)(4-oxo-4-(tridecyloxy)butyl)amino)butyl)azetidinyl)dibutanoate], the viability at 24 h in data set [1] came out at 93.4%. The “Positive rate, %” value with DC2.4 cells came out at 94.85%. The same compound gave a PDI in data set [2] of 0.14. For the same compound, the “Encapsulation rate, %” value in data set [3] is 92.68%.
In the case of `CCCCCCCCCCCCCOC(=O)CCCCN(CCCCO)CCCN(CCCCC(=O)OCCCCCCCCCCCCC)CCCCC(=O)OCCCCCCCCCCCCC` [Example 41, Ditridecyl 5,5'-((3-((4-hydroxybutyl)(5-oxo-5-(tridecyloxy)pentyl)amino)propyl)azadiyl)dipentanoate], the viability at 24 h in data set [1] came to 97.2%. The “Positive rate, %” value in the data set with DC2.4 cells is reported as 96.42%. For the same compound, in data set [2], the PDI is recorded as 0.13 and the Particle size turned out to be 71.17. The “Encapsulation rate, %” value in data set [3] was 96.67%.
With `CCCCCCCCCCCOC(=O)/C=C/CN(C/C=C/C(=O)OCCCCCCCCCCC)CCCN(C/C=C/C(=O)OCCCCCCCCCCC)CCCO` [Example 106], the viability at 24 h in data set [1] was determined as 93.9%. In addition, the “Positive rate, %” value in the data set with DC2.4 cells was 78.77%. The same compound showed a PDI in data set [2] of 0.28. For the same compound, the “Encapsulation rate, %” value in data set [3] came to 65.99%.
With `CCCCCCCCCCCOC(=O)CCCCCCCN(CCCO)CCCN(CCCCCCCC(=O)OCCCCCCCCCCC)CCCCCCCC(=O)OCCCCCCCCCCC` [Example 18, Diundecyl 8,8'-((3-((3-hydroxypropyl)(8-oxo-8-(undecyloxy)octyl)amino)propyl)azanediyl)dioctanoate], the viability at 24 h in data set [1] came to 90.6%. Also, the “Positive rate, %” value in the data set on DC2.4 cells is 96.79%. The same compound registered a PDI in data set [2] of 0.25. The “Encapsulation rate, %” value in data set [3] was 88.82%.
Take `CCCCCCCCCCCCCCOC(=O)CCCCCCN(CCO)CCCN(CCCCCCC(=O)OCCCCCCCCCCCCCC)CCCCCCC(=O)OCCCCCCCCCCCCCC` [Example 56, Ditetradecyl 7,7'-((3-((2-hydroxyethyl)(7-oxo-7-(tetradecyloxy)heptyl)amino)propyl)azanediyl)diheptanoate]: in data set [1], the viability at 24 h came to 80.5%. The “Positive rate, %” value in the data set with DC2.4 cells came to 93.64%. In addition, in data set [2], the PDI turned out to be 0.14 and the Particle size was 64.31. The “Encapsulation rate, %” value in data set [3] was 99.68%.
The like results for `CCCCCCCCCCCCCOC(=O)CCCN(CCCO)CCCN(CCCC(=O)OCCCCCCCCCCCCC)CCCC(=O)OCCCCCCCCCCCCC` [Example 63, Ditridecyl 4,4'-((3-((3-hydroxypropyl)(4-oxo-4-(tridecyloxy)butyl)amino)propyl)azanediyl)dibutanoate] were, in that order, 63.4%, 92.85%, 0.15, 84.74 and 97.68%.
